Assay results from US20030083376A1, “Depot preparations” (priority 2001, published 2003).

Experiments:
Format in all cases: physicochemical
[1] = Storage stability in soap; details: stored in the dark for about one month at room temperature
From the text: (§1) The separate samples are then divided into portions.
The soap formulation below can be prepared in accordance with generally known methods. The data refer to percentages by weight.
The soap formulations A and B were stored in the dark for about one month at room temperature.

[2] = Hydrolysis rate in 1% strength aqueous soap solution, SPME headspace analysis
Procedure: To determine the hydrolysis rate, the depot preparation was added to a 1% strength aqueous soap solution, and the concentration of the depot preparation or of the free aldehyde was measured by SPME headspace analysis.

[3] = Storage stability in powder laundry detergent; details: after one month
From the text: as §1

CCCCCCC(OCCc1ccccc1)OC(C)=O (centres unmarked) [Example 5, 1-(2-Phenylethoxy)heptyl Acetate]
Storage stability [%] [1]: 93%
storage stability relative to the corresponding aldehyde [1]: significantly greater storage stability
time to complete hydrolysis [2]: ≤ 5 min
storage stability [3]: 93%

CCCCCCC=O [Aldehyde C7, n-Heptanal]
Storage stability [%] [1]: 27%
storage stability [3]: 27%

OCCc1ccccc1 [Phenylethyl alcohol, 2-Phenylethanol]
Storage stability [%] [1]: 91%
storage stability [3]: 91%
